Measured values published in publication PMC5564600 (Oncotarget, 2017).

What was measured:
Experiment in all cases: biochemical
Type in all cases: binding
panel of 442 kinases [1] = target: T1, panel of 442 kinases (Homo sapiens, UniProt O94804); settings: kinase LOK; for remaining activity at 1 µM: read-out: % of control at 1 µM
T1 construct: purchased Ambit Biosciences (scanMAXX KINOMEscan)

panel of 442 kinases [2] = target: T2, panel of 442 kinases (Homo sapiens, UniProt O95835); settings: kinase LATS1; for remaining activity at 1 µM: read-out: % of control at 1 µM
T2 construct: purchased Ambit Biosciences (scanMAXX KINOMEscan)
T2 sequence (O95835 1-1130): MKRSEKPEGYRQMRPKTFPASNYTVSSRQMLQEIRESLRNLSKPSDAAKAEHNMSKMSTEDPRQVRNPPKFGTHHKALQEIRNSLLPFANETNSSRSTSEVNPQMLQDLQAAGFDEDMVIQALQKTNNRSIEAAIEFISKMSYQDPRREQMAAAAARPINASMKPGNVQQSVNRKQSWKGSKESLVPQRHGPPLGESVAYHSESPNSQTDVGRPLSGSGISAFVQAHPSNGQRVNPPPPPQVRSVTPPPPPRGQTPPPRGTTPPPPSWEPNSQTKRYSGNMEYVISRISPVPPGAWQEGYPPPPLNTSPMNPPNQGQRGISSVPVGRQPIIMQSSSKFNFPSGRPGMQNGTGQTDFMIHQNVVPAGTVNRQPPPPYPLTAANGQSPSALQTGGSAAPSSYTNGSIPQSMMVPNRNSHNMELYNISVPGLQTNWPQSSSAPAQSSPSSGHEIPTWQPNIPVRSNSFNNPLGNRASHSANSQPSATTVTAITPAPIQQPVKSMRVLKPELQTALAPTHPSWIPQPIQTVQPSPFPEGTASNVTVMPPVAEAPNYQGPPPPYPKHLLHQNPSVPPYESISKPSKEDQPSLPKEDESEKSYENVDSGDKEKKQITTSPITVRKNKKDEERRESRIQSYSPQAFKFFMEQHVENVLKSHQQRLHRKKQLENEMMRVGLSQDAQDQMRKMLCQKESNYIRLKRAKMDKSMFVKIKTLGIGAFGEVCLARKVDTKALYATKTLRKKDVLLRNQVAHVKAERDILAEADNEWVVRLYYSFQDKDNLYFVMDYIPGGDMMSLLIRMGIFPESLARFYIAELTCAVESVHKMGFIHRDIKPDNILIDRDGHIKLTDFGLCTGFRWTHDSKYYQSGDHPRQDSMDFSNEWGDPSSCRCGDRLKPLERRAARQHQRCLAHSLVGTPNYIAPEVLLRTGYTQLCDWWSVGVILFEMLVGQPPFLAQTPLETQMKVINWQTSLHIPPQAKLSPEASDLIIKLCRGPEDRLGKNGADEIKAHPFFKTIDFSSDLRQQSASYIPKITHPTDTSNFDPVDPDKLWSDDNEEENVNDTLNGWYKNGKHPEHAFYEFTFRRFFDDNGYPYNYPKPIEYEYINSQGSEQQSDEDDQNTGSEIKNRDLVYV

panel of 442 kinases [3] = target: T3, panel of 442 kinases (Homo sapiens, UniProt P53779); settings: kinase JNK3; for remaining activity at 1 µM: read-out: % of control at 1 µM
T3 construct: purchased Ambit Biosciences (scanMAXX KINOMEscan)

panel of 442 kinases [4] = target: T4, panel of 442 kinases (Homo sapiens, UniProt Q13237); settings: kinase PRKG2; for remaining activity at 1 µM: read-out: PRKG2 (% of control at 1 µM)
T4 construct: purchased Ambit Biosciences (scanMAXX KINOMEscan)
T4 sequence (Q13237 1-762): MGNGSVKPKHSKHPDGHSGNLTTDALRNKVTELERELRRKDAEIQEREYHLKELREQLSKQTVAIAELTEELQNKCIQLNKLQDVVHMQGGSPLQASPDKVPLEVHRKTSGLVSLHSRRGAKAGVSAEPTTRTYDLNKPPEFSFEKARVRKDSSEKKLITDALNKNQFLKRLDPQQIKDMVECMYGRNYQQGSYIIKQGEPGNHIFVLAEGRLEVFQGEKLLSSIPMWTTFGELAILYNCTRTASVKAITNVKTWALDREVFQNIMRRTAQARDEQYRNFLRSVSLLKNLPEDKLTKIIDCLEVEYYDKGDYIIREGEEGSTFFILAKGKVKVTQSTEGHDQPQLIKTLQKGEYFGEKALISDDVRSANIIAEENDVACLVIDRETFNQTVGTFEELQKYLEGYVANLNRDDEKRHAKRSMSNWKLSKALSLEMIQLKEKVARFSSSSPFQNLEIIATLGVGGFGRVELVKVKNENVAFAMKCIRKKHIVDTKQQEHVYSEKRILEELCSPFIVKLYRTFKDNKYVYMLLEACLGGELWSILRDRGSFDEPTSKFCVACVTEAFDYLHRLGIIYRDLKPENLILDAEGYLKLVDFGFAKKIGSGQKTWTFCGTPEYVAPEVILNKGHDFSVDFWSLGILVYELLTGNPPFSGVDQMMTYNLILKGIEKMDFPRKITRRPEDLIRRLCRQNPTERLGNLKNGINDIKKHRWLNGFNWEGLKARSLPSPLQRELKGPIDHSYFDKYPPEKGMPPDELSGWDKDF

panel of 442 kinases [5] = target: T5, panel of 442 kinases (Homo sapiens, UniProt Q13546); settings: kinase RIPK1; for remaining activity at 1 µM: read-out: RIPK1 (% of control at 1 µM)
T5 construct: purchased Ambit Biosciences (scanMAXX KINOMEscan)
T5 sequence (Q13546 1-671): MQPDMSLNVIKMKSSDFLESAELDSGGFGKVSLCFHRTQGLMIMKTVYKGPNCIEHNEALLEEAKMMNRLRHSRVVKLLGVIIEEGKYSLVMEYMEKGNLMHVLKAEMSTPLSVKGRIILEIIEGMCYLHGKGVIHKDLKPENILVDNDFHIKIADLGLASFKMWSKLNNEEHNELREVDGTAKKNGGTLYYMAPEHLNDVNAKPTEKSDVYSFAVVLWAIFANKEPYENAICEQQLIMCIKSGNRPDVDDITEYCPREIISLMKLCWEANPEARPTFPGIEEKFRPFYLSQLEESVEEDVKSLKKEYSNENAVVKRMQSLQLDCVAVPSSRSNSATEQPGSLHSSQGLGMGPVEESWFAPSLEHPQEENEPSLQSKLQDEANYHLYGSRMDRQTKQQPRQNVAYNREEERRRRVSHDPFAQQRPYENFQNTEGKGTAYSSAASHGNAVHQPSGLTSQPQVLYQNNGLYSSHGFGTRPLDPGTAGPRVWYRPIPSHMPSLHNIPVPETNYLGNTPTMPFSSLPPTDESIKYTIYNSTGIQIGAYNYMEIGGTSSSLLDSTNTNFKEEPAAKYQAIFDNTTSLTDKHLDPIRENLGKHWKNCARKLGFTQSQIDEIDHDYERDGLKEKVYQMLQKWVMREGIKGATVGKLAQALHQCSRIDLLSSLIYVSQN

panel of 442 kinases [6] = target: T6, panel of 442 kinases (Homo sapiens, UniProt Q2M2I8); settings: AAK1; for remaining activity at 1 µM: read-out: % of control at 1 µM
T6 construct: purchased Ambit Biosciences (scanMAXX KINOMEscan)

[7] = 10 µM, read-out: % of control at 10 µM

T1 sequence (O94804 whole entry): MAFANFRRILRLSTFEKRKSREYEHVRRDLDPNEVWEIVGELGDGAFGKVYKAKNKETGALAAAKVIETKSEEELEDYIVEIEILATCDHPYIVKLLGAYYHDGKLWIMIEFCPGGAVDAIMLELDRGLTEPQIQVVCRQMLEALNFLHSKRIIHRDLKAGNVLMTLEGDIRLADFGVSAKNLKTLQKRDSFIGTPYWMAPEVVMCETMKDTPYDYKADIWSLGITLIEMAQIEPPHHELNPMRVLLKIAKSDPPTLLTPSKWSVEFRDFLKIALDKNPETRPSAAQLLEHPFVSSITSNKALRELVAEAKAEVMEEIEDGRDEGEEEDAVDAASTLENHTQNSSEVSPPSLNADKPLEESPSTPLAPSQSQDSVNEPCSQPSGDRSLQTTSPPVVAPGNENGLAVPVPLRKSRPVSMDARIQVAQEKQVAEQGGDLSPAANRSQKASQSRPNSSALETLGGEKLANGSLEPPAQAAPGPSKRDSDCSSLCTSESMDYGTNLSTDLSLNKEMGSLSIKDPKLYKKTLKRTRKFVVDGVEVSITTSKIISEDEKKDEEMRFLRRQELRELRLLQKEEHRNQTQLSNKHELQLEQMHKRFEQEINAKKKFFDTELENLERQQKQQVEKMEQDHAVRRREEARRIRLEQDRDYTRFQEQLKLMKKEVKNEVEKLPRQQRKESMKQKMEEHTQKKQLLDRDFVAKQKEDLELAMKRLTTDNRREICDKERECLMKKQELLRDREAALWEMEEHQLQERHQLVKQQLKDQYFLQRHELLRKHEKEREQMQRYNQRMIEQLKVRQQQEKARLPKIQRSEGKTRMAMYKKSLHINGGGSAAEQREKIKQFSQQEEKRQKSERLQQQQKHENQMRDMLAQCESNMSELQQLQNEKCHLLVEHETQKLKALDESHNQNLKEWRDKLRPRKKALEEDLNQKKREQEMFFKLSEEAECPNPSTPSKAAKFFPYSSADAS
T6 sequence (Q2M2I8 whole entry): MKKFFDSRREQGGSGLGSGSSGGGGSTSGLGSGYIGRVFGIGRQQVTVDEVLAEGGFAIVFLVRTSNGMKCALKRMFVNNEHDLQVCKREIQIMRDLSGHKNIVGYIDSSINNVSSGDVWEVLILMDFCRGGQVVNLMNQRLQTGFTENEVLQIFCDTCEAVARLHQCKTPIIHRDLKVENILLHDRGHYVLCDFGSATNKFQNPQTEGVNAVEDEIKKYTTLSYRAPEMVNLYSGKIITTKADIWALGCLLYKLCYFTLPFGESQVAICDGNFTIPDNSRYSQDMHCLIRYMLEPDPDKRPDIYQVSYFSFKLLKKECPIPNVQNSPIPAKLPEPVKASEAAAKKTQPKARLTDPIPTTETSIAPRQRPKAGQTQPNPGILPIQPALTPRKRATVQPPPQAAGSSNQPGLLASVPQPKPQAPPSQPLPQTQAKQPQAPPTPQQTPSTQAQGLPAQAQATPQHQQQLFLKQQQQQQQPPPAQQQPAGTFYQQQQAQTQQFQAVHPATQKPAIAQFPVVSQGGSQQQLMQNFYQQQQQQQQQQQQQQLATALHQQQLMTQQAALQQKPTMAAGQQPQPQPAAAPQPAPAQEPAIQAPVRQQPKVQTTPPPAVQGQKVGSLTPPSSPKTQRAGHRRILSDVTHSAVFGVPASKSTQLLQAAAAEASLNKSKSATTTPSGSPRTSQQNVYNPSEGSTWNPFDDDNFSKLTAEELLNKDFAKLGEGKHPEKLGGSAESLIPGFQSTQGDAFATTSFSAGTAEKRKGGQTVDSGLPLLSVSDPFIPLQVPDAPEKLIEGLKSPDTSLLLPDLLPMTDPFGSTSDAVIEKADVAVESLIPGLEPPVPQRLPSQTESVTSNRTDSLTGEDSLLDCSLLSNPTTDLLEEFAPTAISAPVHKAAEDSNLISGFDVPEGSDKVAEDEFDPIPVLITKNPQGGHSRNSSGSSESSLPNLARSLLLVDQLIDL
T3 sequence (P53779 whole entry): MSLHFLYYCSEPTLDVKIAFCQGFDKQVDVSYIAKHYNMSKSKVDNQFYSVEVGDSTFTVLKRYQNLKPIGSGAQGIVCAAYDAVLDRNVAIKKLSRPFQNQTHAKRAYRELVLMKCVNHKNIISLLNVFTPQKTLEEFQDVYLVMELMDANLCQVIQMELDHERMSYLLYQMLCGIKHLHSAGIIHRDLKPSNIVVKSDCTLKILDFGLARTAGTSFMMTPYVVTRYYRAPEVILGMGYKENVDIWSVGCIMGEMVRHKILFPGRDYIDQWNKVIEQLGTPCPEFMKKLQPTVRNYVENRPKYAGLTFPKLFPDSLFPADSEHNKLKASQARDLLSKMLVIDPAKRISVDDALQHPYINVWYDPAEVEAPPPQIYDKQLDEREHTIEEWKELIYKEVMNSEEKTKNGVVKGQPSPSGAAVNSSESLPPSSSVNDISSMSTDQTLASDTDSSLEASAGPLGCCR

SMILES	remaining activity at 1 µM (panel of 442 kinases [1])	remaining activity at 10 µM (panel of 442 kinases [1]; [7])	remaining activity at 1 µM (panel of 442 kinases [2])	remaining activity at 10 µM (panel of 442 kinases [2]; [7])	remaining activity at 1 µM (panel of 442 kinases [3])	remaining activity at 10 µM (panel of 442 kinases [3]; [7])	remaining activity at 1 µM (panel of 442 kinases [4])	remaining activity at 10 µM (panel of 442 kinases [4]; 10 µM, read-out: PRKG2 (% of control at 10 µM))	remaining activity at 1 µM (panel of 442 kinases [5])	remaining activity at 10 µM (panel of 442 kinases [5]; 10 µM, read-out: RIPK1 (% of control at 10 µM))	remaining activity at 1 µM (panel of 442 kinases [6])	remaining activity at 10 µM (panel of 442 kinases [6]; [7])
Nc1cc(C(F)(F)F)c(-c2cc(N3CCOCC3)nc(N3CCOCC3)n2)cn1 [Buparlisib]	92%	100%	71%	100%	100%	100%	93%	100%	100%	100%	97%	100%
Cn1c(=O)n(-c2ccc(C(C)(C)C#N)cc2)c2c3cc(-c4cnc5ccccc5c4)ccc3ncc21 [Dactolisib, 2-methyl-2-[4-(3-methyl-2-oxo-8-quinolin-3-yl-2,3-dihydroimidazo[4,5-c]quinolin-1-yl)-phenyl] propionitrile]	100%		100%		100%		84%		91%		84%	
COc1ncc(-c2ccc3nccc(-c4ccnnc4)c3c2)cc1NS(=O)(=O)c1ccc(F)cc1F [Omipalisib]	100%		100%		90%		96%		78%		66%	
FC(F)c1nc2ccccc2n1-c1nc(N2CCOCC2)nc(N2CCOCC2)n1 [ZSTK474, 2-(difluoromethyl)-1-[4,6-di(4-morpholinyl)-1,3,5-triazin-2-yl]-1H-benzimidazole]	100%		90%		100%		95%		98%		100%	
